IC50 and GI50 data for 18 molecules are collected here from patent publication US9580413B2, “Substituted pyrrolidines as ROS tyrosine kinase inhibitors” (NIPPON SHINYAKU CO., LTD., priority 2012, dated 2017).

Where a name gives a salt, the structure may show the parent alone.

For one assay, the target named is T1, ROS tyrosine kinase (Homo sapiens, UniProt P08922).
T1 construct: purchased Carna Biosciences, Inc
The assay can be described thus: ROS tyrosine kinase inhibitory activity test (ELISA). The assay is classed as biochemical, humans. The note with it: 25 μM ATP substrate solution, 30° C., one hour. How it is done:
(§1) 1. Preparation of Test Substance:
(§2) A test substance was dissolved in dimethyl sulfoxide (DMSO) to 10 mM and further diluted with DMSO to concentrations of 100-fold of the concentrations to be measured (100, 10, 1, 0.1, and 0.01 μM). Furthermore, the resultant was diluted with an assay buffer to 20-fold, thereby preparing a solution as a test substance solution. A solution prepared by diluting DMSO with an assay buffer to 20-fold was used as a negative control. A buffer containing 15 mM Tris-Cl (pH 7.5), 0.01 (v/v) % Tween-20, and 1 mM dithiothreitol was used as the assay buffer.
(§3) 2. Measurement of ROS Tyrosine Kinase Activity and JAK2 Tyrosine Kinase Activity:
(§4) The activity was measured by adopting the ELISA method. […] Finally, an ROS kinase or a JAK2 kinase (derived from humans, Carna Biosciences, Inc.) (diluted with the assay buffer to 0.25 nM) was added to the plate at 20 μL per well, and the resulting mixture was stirred. A reaction was performed at 30° C. for one hour. After the plate was washed 4 times with a washing buffer (50 mM Tris-Cl (pH 7.5), 150 mM NaCl, and 0.02 (v/v) % Tween-20), a blocking buffer (0.1% bovine serum albumin, 50 mM Tris-Cl (pH 7.5), 150 mM NaCl, and 0.02 (v/v) % Tween-20) was added to the plate at 150 μL per well, and incubated at 30° C. for 30 minutes. The blocking buffer was then removed, and a horse radish peroxidase-labeled anti-phosphorylated tyrosine antibody (BD Biosciences, Inc.) (diluted with the blocking buffer to 10,000-fold) was added to the plate at 100 μL per well, and the plate was incubated at 30° C. for 30 minutes. After the plate was washed 4 times with the washing buffer, a 3,3′,5,5′-tetramethylbenzidine solution (Sigma-Aldrich Co., Ltd.) was added to the plate at 100 μL per well to develop the color for 10 minutes. The reaction was stopped by adding 0.1 M sulfuric acid at 100 μL per well. An absorbance at 450 nm was measured with a microplate reader (Model 3550, manufactured by BIO-RAD, Benchmark, manufactured by BIO-RAD, or iMARK, manufactured by BIO-RAD).
(§5) 3. Analysis of Measurement Results:
(§6) A non-linear regression analysis was performed for the measured absorbance with an SAS system (SAS Institute Inc.), and a concentration of each of the test substances of inhibiting the ROS tyrosine kinase activity or JAK2 tyrosine kinase activity at 50% (IC50) was calculated. The inhibitory activity (IC50, nM) of each of the test substances against the ROS tyrosine kinase or JAK2 tyrosine kinase is shown in Tables 6 to 8.
In general terms: In an ELISA, binding on a coated surface is turned into a signal by an enzyme label.

The next assay has as its target T2, JAK2 tyrosine kinase (Homo sapiens, UniProt O60674).
T2 construct: purchased Carna Biosciences, Inc
Briefly: JAK2 tyrosine kinase inhibitory activity test (ELISA). The assay is classed as biochemical, humans. The note with it: 25 μM ATP substrate solution, 30° C., one hour. As for the experimental part: as §1, §2, §3, §4, §5, §6

In a further assay the target is T3, FIG-ROS/BaF3 cell (Homo sapiens, UniProt P08922).
T3 construct: fused on or other part: Q9HD26 (Golgi-associated PDZ and coiled-coil motif-containing protein)
The assay can be described thus: Proliferation inhibitory activity test against FIG-ROS/BaF3 cell. The conditions noted are these: 3 days incubation, cell counting kit; read-out: Proliferation inhibitory activity against FIG-ROS/BaF3 cell (IC50). It is filed as cell-based. As for the experimental part: A BaF3 cell which had been transformed by introducing the FIG-ROS fusion gene (derived from U118MG human glioma cell) (FIG-ROS/BaF3 Cell) was prepared on a culture medium, seeded on a 96-well plate in the number of 1×10^3/100 μL per well, and then allowed to stand in a CO2 incubator (at 37° C. and 5% CO2). As the culture medium, 10% FBS (fetal bovine serum)-incorporated RPMI-1640 was used.
2. Proliferation Inhibitory Activity Test:
A test substance was dissolved in dimethyl sulfoxide (DMSO) to 10 mM and further diluted with DMSO to 100-fold to prepare a 100 μM solution. This was diluted with a 1% DMSO-incorporated medium to concentrations of 10-fold of the concentration to be measured (10,000, 1,000, 100, 10, and 1 nM). Each of the medicine solutions was added at 11 μL per well and mixed. To a control having no medicine added thereto, a 1% DMSO-incorporated medium was added, and incubated in a CO2 incubator (at 37° C. and 5% CO2) for 3 days. After completion of the incubation, the number of live cells was counted using a cell counting kit. First of all, each cell counting kit solution was added at 5 μL per well and mixed, and incubated in a CO2 incubator (at 37° C. and 5% CO2) for 4 hours. An absorbance at 450 nm was measured with a microplate reader (Model 3550, manufactured by BIO-RAD, Benchmark, manufactured by BIO-RAD, or iMARK, manufactured by BIO-RAD) with a reference wavelength of 650 nm.
as §5
A non-linear regression analysis was performed for the measured absorbance with an SAS system (SAS Institute Inc.), and a concentration of each of the test substances of inhibiting the cell proliferation at 50% (IC50) was calculated. The proliferation inhibitory activity (IC50, nM) of each of the test substances against the FIG-ROS/BaF3 cell is shown in Table 9.
For orientation: Tetrazolium assays rely on reduction of a dye to a coloured formazan, in cell work by metabolically active cells.

Usually IC50 stands for the concentration that gives 50% inhibition. Low values mean greater potency in that assay, high ones weaker potency in that assay.

T1 sequence (P08922 28-2347): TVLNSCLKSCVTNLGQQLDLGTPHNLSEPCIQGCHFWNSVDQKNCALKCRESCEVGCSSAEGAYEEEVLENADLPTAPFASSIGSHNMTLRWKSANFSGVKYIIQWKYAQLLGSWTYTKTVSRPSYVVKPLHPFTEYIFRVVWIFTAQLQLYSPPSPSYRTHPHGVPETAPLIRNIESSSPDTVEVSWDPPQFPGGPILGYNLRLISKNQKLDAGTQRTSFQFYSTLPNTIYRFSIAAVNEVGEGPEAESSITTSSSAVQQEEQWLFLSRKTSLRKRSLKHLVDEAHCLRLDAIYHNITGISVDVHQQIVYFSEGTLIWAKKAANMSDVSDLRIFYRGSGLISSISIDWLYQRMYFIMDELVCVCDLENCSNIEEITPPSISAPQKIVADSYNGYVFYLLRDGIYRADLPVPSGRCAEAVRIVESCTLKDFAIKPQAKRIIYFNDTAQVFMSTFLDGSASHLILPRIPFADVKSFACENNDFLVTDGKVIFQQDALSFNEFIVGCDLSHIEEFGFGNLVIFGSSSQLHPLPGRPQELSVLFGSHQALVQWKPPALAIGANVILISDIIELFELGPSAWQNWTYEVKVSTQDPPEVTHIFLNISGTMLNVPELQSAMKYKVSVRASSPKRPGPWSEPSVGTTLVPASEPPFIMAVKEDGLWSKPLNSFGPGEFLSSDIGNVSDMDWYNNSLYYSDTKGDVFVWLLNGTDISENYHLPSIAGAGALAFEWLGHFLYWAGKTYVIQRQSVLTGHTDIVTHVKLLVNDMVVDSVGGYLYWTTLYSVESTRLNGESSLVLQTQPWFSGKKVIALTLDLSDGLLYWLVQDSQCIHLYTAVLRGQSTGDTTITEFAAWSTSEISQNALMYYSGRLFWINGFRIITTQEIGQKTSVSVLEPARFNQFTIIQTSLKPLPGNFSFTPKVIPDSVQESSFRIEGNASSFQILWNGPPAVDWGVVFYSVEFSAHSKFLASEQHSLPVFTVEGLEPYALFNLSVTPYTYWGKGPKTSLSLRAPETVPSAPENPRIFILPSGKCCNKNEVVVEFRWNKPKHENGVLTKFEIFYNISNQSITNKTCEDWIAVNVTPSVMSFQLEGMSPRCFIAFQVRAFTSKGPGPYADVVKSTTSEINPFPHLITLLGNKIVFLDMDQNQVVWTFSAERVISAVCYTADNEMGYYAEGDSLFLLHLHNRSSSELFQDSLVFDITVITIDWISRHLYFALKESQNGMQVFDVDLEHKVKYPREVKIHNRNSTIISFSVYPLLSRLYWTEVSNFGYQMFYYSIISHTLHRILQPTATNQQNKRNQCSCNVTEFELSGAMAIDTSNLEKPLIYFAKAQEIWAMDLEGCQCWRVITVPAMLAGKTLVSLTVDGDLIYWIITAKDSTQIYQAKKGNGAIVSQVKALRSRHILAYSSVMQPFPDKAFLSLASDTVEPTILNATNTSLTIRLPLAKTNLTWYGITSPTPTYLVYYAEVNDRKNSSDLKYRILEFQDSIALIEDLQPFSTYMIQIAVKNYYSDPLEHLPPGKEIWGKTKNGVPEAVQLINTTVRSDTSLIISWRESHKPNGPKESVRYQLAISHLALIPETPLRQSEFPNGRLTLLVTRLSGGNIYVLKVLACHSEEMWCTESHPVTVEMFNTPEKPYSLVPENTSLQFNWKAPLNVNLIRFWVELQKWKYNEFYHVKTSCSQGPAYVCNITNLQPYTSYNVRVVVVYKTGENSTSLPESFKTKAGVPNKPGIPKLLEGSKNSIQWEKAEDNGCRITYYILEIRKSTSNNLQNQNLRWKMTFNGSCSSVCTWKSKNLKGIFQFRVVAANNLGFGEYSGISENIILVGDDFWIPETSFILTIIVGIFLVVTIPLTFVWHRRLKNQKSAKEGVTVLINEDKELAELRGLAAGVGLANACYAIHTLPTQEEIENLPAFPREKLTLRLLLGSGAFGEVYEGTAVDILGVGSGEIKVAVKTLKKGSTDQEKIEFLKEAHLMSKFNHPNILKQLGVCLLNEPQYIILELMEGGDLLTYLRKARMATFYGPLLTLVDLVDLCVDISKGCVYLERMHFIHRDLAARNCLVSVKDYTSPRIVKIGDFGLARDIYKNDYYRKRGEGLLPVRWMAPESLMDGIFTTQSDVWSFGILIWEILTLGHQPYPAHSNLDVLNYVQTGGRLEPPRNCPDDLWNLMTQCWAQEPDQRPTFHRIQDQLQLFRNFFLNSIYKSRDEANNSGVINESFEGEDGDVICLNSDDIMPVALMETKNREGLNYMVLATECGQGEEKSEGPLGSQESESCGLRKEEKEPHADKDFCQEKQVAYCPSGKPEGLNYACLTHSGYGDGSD
T2 sequence (O60674 whole entry): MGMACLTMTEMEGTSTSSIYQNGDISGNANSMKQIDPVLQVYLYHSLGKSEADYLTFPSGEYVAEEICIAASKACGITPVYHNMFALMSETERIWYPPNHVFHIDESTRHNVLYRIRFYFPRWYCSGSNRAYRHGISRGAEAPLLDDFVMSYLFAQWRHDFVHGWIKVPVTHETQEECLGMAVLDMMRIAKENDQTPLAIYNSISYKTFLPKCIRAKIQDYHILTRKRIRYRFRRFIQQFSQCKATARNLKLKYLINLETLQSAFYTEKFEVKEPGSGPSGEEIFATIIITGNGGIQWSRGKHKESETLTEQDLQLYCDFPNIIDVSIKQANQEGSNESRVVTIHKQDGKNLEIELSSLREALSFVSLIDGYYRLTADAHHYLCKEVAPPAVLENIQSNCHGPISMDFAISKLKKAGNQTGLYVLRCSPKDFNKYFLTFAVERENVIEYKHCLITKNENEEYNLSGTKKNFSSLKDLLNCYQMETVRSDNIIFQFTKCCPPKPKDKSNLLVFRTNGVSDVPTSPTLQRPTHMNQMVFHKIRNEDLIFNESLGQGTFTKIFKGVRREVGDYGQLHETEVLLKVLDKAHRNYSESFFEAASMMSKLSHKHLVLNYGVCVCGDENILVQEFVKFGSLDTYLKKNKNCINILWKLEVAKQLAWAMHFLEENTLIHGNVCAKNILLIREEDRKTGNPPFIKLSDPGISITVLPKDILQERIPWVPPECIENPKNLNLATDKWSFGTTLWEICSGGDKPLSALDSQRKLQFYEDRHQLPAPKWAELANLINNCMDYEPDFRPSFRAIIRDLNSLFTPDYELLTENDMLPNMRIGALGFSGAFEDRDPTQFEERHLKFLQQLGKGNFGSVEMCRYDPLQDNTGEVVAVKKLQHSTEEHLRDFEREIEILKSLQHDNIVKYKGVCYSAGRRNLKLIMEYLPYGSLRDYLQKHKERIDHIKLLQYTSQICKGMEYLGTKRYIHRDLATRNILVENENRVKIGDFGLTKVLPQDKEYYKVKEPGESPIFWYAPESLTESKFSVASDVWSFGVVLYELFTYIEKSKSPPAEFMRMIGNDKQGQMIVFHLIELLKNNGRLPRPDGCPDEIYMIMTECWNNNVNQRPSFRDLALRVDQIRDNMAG

On to `Cc1ccc([C@@H]2CCCN2c2cncc(Nc3ncc(C#N)s3)n2)cc1` [Example 1, 2-({6-[(2S)-2-(4-Methylphenyl)pyrrolidin-1-yl]pyrazin-2-yl}amino)-1,3-thiazole-5-carbonitrile hydrochloride], for which the half-inhibitory concentration (IC50) at ROS tyrosine kinase is 1.6 nM; against JAK2 tyrosine kinase, 76 nM. The GI50 at FIG-ROS/BaF3 cell amounted to 2.2 nM.
For the molecule `COc1c(Nc2ncc(C#N)s2)nc(N2CCCC2c2ccc(C)cc2)nc1-c1ccc(C(N)=O)cc1` (centres unmarked) [Example 4, 4-{6-[(5-Cyano-1,3-thiazol-2-yl)amino]-5-methoxy-2-[2-(4-methylphenyl)pyrrolidin-1-yl]pyrimidin-4-yl}benzamide], the IC50 against ROS tyrosine kinase was 35 nM; on JAK2 tyrosine kinase, more than 1000 nM. The GI50 on FIG-ROS/BaF3 cell is 2.6 nM.
The matching figures for `COC(=O)c1cc(Nc2ncc(C#N)s2)nc(N2CCCC2c2ccc(C)cc2)n1` (centres unmarked) [Example 6, Methyl 6-[(5-cyano-1,3-thiazol-2-yl)amino]-2-[2-(4-methylphenyl)pyrrolidin-1-yl]pyrimidine-4-carboxylate]: 7.1 nM, 92 nM and 23 nM.
The matching figures for `Cc1ccc(C2CCCN2c2nc(Nc3ncc(C#N)s3)cc(C(=O)O)n2)cc1` (centres unmarked) [Example 7, 6-[(5-Cyano-1,3-thiazol-2-yl)amino]-2-[2-(4-methylphenyl)pyrrolidin-1-yl]pyrimidine-4-carboxylic acid]: 0.6 nM, 37 nM and 83 nM.
The matching figures for `COc1c(C)nc(N2CCC[C@H]2c2ccc(C)cc2)nc1Nc1ncc(C#N)s1` [Example 9, 2-({5-Methoxy-6-methyl-2-[(2S)-2-(4-methylphenyl)pyrrolidin-1-yl]pyrimidin-4-yl}amino)-1,3-thiazole-5-carbonitrile maleate]: 0.6 nM, 500 nM and 2.1 nM.
For `COc1c(Nc2ncc(C#N)s2)nc(N2CCCC2c2ccc(C)cc2)nc1-c1cnco1` (centres unmarked) [Example 11, 2-({5-Methoxy-2-[2-(4-methylphenyl)pyrrolidin-1-yl]-6-(1,3-oxazol-5-yl)pyrimidin-4-yl}amino)-1,3-thiazole-5-carbonitrile], the results for the IC50 against ROS tyrosine kinase and on JAK2 tyrosine kinase were 2.7 nM and more than 1000 nM, respectively. Besides, the GI50 at FIG-ROS/BaF3 cell turned out to be 2.2 nM.
Take `Cc1ccc(C2CCCN2c2nc(Nc3ncc(C#N)s3)cc(C(=O)N[C@H](C)CO)n2)cc1` (stereo partly drawn) [Example 12, 6-[(5-Cyano-1,3-thiazol-2-yl)amino]-N-[(2R)-1-hydroxypropan-2-yl]-2-[2-(4-methylphenyl)pyrrolidin-1-yl]pyrimidine-4-carboxamide]: the IC50 worked out at 21 nM at ROS tyrosine kinase and 540 nM against JAK2 tyrosine kinase. Further, the GI50 on FIG-ROS/BaF3 cell was determined as 24 nM.
On to `COc1c(Nc2ncc(C#N)s2)nc(N2CCCC2c2ccc(C)cc2)nc1-c1ccc(S(C)(=O)=O)cc1` (centres unmarked) [Example 13, 2-({5-Methoxy-2-[2-(4-methylphenyl)pyrrolidin-1-yl]-6-[4-(methylsulfonyl)phenyl]pyrimidin-4-yl}amino)-1,3-thiazole-5-carbonitrile], for which the figures for the IC50 at ROS tyrosine kinase and against JAK2 tyrosine kinase were 44 nM and not below 1000 nM, respectively. For the same molecule, the GI50 at FIG-ROS/BaF3 cell was 3.5 nM.
`Cc1ncc(N2CCCC2c2ccc(Cl)cc2)nc1Nc1ncc(C#N)s1` (centres unmarked) [Example 42, 2-({6-[2-(4-Chlorophenyl)pyrrolidin-1-yl]-3-methylpyrazin-2-yl}amino)-1,3-thiazole-5-carbonitrile]: the concentration for half-maximal inhibition (IC50) against ROS tyrosine kinase came to 1.6 nM; at JAK2 tyrosine kinase it was 100 nM.
The matching figures for `Cc1nc(C2CC2)c(Nc2ncc(C#N)s2)nc1N1CCCC1c1ccc(Cl)cc1` (centres unmarked) [Example 44, 2-({6-[2-(4-Chlorophenyl)pyrrolidin-1-yl]-3-cyclopropyl-5-methylpyrazin-2-yl}amino)-1,3-thiazole-5-carbonitrile]: 13 nM and not below 1000 nM.
The matching figures for `Cc1cccc(C2CCCN2c2cncc(Nc3ncc(C#N)s3)n2)c1` (centres unmarked) [Example 46, 2-({6-[2-(3-Methylphenyl)pyrrolidin-1-yl]pyrazin-2-yl}amino)-1,3-thiazole-5-carbonitrile]: 6.4 nM and 280 nM.
The matching figures for `Cc1ccccc1C1CCCN1c1cncc(Nc2ncc(C#N)s2)n1` (centres unmarked) [Example 47, 2-({6-[2-(2-Methylphenyl)pyrrolidin-1-yl]pyrazin-2-yl}amino)-1,3-thiazole-5-carbonitrile]: 17 nM and 280 nM.
As to `COc1c(Nc2ncc(C#N)s2)nc(N2CCCC2c2ccc(C)cc2)nc1-c1cccnc1F` (centres unmarked) [Example 49, 2-({6-(2-Fluoropyridin-3-yl)-5-methoxy-2-[2-(4-methylphenyl)pyrrolidin-1-yl]pyrimidin-4-yl}amino)-1,3-thiazole-5-carbonitrile], the IC50 is 52 nM at ROS tyrosine kinase and more than 1000 nM against JAK2 tyrosine kinase.
The matching figures for `Cc1ccc(C2CCCN2c2nc(C)c(C)c(Nc3ncc(C#N)s3)n2)cc1` (centres unmarked) [Example 52, 2-({5,6-Dimethyl-2-[2-(4-methylphenyl)pyrrolidin-1-yl]pyrimidin-4-yl}amino)-1,3-thiazole-5-carbonitrile]: 1.8 nM and 170 nM.
The matching figures for `Cc1cc(-c2ncc(N3CCCC3c3ccc(F)cc3)nc2Nc2ncc(C#N)s2)ccn1` (centres unmarked) [Example 53, 2-({6-[2-(4-Fluorophenyl)pyrrolidin-1-yl]-3-(2-methylpyridin-4-yl)pyrazin-2-yl}amino)-1,3-thiazole-5-carbonitrile]: 67 nM and more than 1000 nM.
Turning to `COCCn1cc(-c2nc(N3CCC[C@H]3c3ccc(C)cc3)nc(Nc3ncc(C#N)s3)c2OC)cn1` [Example 58, 2-({5-Methoxy-6-[1-(2-methoxyethyl)-1H-pyrazol-4-yl]-2-[(2S)-2-(4-methylphenyl)pyrrolidin-1-yl]pyrimidin-4-yl}amino)-1,3-thiazole-5-carbonitrile], the half-inhibitory concentration (IC50) turned out to be 2.2 nM on ROS tyrosine kinase and 240 nM at JAK2 tyrosine kinase.
In the case of `Cc1ccc([C@@H]2CCCN2c2cc(C(N)=O)c(C3CC3)c(Nc3ncc(C#N)s3)n2)cc1` [Example 66, 2-[(5-Cyano-1,3-thiazol-2-yl)amino]-3-cyclopropyl-6-[(2S)-2-(4-methylphenyl)pyrrolidin-1-yl]pyridine-4-carboxamide], the IC50 on ROS tyrosine kinase stood at 0.84 nM; against JAK2 tyrosine kinase, 910 nM.
The matching figures for `Cc1ccc(C2CCCN2c2nc3c(c(Nc4ncc(C#N)s4)n2)CN(S(C)(=O)=O)CC3)cc1` (centres unmarked) [Example 72, 2-({2-[2-(4-Methylphenyl)pyrrolidin-1-yl]-6-(methylsulfonyl)-5,6,7,8-tetrahydropyrido[4,3-d]pyrimidin-4-yl}amino)-1,3-thiazole-5-carbonitrile]: 97 nM and more than 1000 nM.
